In ChEMBL document CHEMBL1201862, “PubChem BioAssay data set” (2004):
Calls of active or inactive are those of the source. For most assays here, no stated cut-off is given here; in the data, actives have a measured EC50 and inactives only a lower limit.

Experiments:
[1] = molecular target: T1, Heat shock factor protein 1 (Mus musculus, UniProt P38532); assay: decrease of HSF1-responsive luciferase luminescence – cell-based, NIH3T3, dose retest, confirmation (AID 2382); type: functional;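 further: NIH3T3 fibroblasts with HSF1-driven luciferase reporter stressed by proteasome inhibitor MG132; luminescence from HSF1-driven luciferase expression after 8 hours of MG132 stress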
T1 sequence (P38532 whole entry): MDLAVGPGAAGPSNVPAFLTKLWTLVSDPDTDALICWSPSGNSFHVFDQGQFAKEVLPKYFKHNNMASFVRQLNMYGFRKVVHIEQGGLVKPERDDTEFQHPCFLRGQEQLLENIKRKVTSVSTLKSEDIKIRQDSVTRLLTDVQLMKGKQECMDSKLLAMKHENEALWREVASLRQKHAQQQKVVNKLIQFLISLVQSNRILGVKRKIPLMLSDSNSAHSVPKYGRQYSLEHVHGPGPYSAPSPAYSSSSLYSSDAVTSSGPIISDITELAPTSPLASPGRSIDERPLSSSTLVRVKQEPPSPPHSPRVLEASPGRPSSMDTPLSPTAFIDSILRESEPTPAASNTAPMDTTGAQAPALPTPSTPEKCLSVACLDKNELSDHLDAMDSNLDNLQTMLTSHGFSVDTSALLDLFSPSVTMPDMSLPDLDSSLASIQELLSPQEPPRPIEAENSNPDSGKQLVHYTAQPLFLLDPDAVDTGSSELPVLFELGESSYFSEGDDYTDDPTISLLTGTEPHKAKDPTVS

[2] = molecular target: T2, Replicative DNA helicase DnaB (Mycobacterium tuberculosis, UniProt P9WMR3); assay: DnaB intein splicing inhibitors, dose response, biochemical, cell-free fluorescence (AID 449749); type: functional
T2 sequence (P9WMR3 whole entry): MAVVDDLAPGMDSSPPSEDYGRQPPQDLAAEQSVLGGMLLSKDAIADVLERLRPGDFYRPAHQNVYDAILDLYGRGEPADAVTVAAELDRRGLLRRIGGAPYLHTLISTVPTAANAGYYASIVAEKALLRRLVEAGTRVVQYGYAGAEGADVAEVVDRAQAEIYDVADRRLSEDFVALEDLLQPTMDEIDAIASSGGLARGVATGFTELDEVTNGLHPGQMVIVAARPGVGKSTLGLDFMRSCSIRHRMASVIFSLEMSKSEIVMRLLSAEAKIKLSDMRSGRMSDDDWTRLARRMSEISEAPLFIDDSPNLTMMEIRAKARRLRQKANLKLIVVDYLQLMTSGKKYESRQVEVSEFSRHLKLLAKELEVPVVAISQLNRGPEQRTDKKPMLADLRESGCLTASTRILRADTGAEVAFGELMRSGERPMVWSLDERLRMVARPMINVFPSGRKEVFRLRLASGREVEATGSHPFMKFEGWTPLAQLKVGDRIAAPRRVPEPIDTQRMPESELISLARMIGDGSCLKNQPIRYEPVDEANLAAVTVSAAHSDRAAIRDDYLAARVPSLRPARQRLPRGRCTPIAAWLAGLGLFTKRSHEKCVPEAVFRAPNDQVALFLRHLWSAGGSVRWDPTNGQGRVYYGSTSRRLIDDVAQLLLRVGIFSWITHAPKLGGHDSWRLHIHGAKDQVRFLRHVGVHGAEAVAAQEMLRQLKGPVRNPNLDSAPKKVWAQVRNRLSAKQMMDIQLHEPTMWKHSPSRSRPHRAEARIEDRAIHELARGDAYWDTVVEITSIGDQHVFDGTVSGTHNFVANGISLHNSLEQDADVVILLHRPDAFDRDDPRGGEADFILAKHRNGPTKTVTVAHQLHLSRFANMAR

Protein RecA = molecular target: T3, Protein RecA (Mycobacterium tuberculosis, UniProt P9WHJ3); assay: Fluorescence Cell-Free Homogeneous Dose Retest to Identify Inhibitors of RecA-Intein Splicing Activity. [Related pubchem assays (depositor defined):AID2097, AID2223, AID489010, AID492950]; type: functional
T3 sequence (P9WHJ3 whole entry): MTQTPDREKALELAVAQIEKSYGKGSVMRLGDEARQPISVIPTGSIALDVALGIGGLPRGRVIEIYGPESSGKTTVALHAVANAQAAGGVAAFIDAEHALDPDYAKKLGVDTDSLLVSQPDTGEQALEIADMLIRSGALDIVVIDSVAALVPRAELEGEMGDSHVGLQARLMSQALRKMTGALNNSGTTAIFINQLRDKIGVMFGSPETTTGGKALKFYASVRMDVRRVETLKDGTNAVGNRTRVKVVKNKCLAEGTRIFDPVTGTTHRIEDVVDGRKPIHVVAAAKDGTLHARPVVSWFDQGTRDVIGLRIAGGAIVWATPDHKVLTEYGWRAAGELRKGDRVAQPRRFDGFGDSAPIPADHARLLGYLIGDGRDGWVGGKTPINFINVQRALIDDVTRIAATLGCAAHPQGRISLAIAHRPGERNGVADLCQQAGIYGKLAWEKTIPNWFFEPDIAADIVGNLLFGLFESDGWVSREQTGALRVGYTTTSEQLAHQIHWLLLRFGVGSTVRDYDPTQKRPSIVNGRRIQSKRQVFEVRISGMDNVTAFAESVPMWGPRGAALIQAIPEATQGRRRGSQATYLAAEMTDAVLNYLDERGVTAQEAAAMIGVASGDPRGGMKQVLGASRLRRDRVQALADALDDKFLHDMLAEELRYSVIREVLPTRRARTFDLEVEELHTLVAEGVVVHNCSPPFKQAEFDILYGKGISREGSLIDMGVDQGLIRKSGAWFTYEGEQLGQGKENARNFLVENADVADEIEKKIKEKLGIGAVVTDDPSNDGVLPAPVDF

H9c2 = assay: cells; type: functional, cell-based; details: Rattus norvegicus, H9c2, Myocardium;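 further: confirmatory concentration-response retest of ultra-high-throughput screening hits for modulation of myocardial damage; cell death induced by hydrogen peroxide oxidative stress; compound pretreatment for 60 min then peroxide exposure for 2 h; potency is for protecting the cells against peroxide damage rather than for killing them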
[3] = test system: Streptococcus sp. 'group A'; assay: Streptococcus pyogenes SK(-)GAS viability under kanamycin – luminescence, BacTiterGlo, confirmation, counter-screen for streptokinase expression inhibitor project, dose response (AID 1900); type: functional, organism-based
Streptokinase A = molecular target: T4, Streptokinase A (Streptococcus pyogenes serotype M1, UniProt P10520); assay: viability-normalized secreted streptokinase activity reduction – plasminogen activation absorbance, OD405, dose response (AID 1914); type: functional, Streptococcus pyogenes M1 GAS;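 further: secreted streptokinase activity via plasminogen activation per viability signal from cell pellet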
T4 sequence (P10520 whole entry): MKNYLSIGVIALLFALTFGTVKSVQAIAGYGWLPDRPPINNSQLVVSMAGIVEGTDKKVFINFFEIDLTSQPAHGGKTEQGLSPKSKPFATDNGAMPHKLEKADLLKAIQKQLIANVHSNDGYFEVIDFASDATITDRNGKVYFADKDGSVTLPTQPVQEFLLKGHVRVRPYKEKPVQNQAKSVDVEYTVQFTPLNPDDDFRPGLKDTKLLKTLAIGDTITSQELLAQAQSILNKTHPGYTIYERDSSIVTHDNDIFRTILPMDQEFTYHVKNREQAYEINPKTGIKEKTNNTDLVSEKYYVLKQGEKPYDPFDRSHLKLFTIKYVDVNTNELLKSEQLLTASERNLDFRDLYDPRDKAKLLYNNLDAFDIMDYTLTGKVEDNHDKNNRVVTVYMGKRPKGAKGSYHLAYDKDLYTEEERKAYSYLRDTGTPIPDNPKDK

Streptococcus = assay: GAS UMAA2166 growth inhibition – luminescence, BacTiterGlo, counter-screen for streptokinase expression inhibitor project, dose response (AID 1915); type: functional, organism-based;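 further: potency for reduction of bacterial viability or growth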
[4] = Trypanosoma cruzi growth suppression in host cells – NIH3T3 host cells, beta-gal luminescence, confirmation (AID 2044); type: functional, cell-based;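 further: intracellular parasites grown in NIH/3T3 mouse fibroblasts as host cells; luminescent beta-galactosidase reporter signal from transgenic T. cruzi replicating inside host cells; inhibitors lower the luminescence signal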
[5] = NIH3T3 cell viability loss – ATP luminescence, mouse fibroblasts, counter-screen, dose response (AID 2010); type: functional, cell-based;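 further: cells exposed to compound for about 90 hours before reading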

SMILES: C=CCC(Nc1ccccc1)c1ccc(OC)c(OC)c1 (stereo not drawn)
- EC50 [1]: > 195 µM (not active)

SMILES: Cc1cccc(Sc2c(C=O)c3ccccc3n2C)c1
- AC50 [2]: 5.7 µM (active)
- EC50 (Protein RecA): 29.6 µM (active)

SMILES: COc1cccc(-c2cnc3c(NC=O)cc(-c4cc(C)c(O)c(C)c4)cn23)c1
- IC50 (H9c2): > 79 µM (inactive)

SMILES: CCN(CC(=O)Nc1c(F)cccc1F)C(=O)Cn1[nH]c(=O)c2ccccc2c1=O
- IC50 (H9c2): > 79 µM (inactive)

SMILES: Cc1c(C(=O)Nc2ccc3nc(N4CCOCC4)sc3c2)oc2ccccc12
- IC50 (H9c2): > 79 µM (inactive)

SMILES: O=C(O)CSc1c2c(nc3cc(C(=O)Nc4cccc(C(F)(F)F)c4)ccc13)CCCC2
- AC50 [2]: 22.6 µM (active)
- EC50 (Protein RecA): 13 µM (active)

SMILES: COc1ccc(/C=C/C(=O)N2CCN(c3ccccn3)CC2)cc1OC
- EC50 [1]: > 195 µM (not active)

SMILES: CC(C)c1nc2ccccc2c2nnc(SCC(=O)NCc3ccco3)n12
- EC50 [1]: > 195 µM (not active)

SMILES: COc1ccc(N2C(=O)CC(NNc3ncc(Cl)cc3Cl)C2=O)cc1 (stereo not drawn)
- EC50 [1]: > 195 µM (not active)

SMILES: O=C(O)C1CSC(c2ccc3c(c2)OCO3)N1 (stereo not drawn)
- EC50 [1]: > 195 µM (not active)

SMILES: COC(=O)c1[nH]c2ccccc2c1NC(=O)CNC1CCCCC1
- IC50 (H9c2): > 79 µM (inactive)

SMILES: CC(C)c1ccc(OCCCN2CCCC2)cc1
- EC50 [1]: > 195 µM (not active)

SMILES: COc1cccc(CNC(=O)c2ccccc2SCC(=O)N2CCCC2)c1
- EC50 [1]: > 195 µM (not active)

SMILES: Cc1cc(C)nc(SCc2ccc(C(=O)N/N=C/c3ccccn3)cc2)n1
- IC50 (H9c2): > 79 µM (inactive)

SMILES: COc1ccc([N+](=O)[O-])cc1NC(=O)C(C)OC(=O)Cn1[nH]c(=O)c2ccccc2c1=O (stereo not drawn)
- IC50 (H9c2): > 79 µM (inactive)

SMILES: CSc1ncccc1C(=O)N1CCCC(N2CCN(c3ccccc3F)CC2)C1 (stereo not drawn)
- EC50 [1]: > 195 µM (not active)

SMILES: CCOC(=O)c1[nH]c2cc(OC)c(OC)cc2c1NC(=O)C(C)N1CCN(Cc2ccccc2)CC1 (stereo not drawn)
- IC50 (H9c2): 10.2 µM (active)

SMILES: Cc1cccc2sc(NC(=O)[C@H](C)N3C(=O)C4CC=CCC4C3=O)nc12 (stereo partly drawn)
- EC50 [1]: > 195 µM (not active)

SMILES: CCOC(=O)Cc1n[nH]c2c1C(c1cccc(OC)c1OC)C(C#N)=C(N)O2 (stereo not drawn)
- AC50 [2]: 34.7 µM (inconclusive)
- EC50 (Protein RecA): > 380 µM (inactive)

SMILES: COc1cc2nc(S)n3nc(COc4ccccc4C)nc3c2cc1OC
- EC50 [3]: 4.21 µM (active)
- EC50 (Streptokinase A): > 150 µM (not active)
- EC50 (Streptococcus): 10.5 µM (active)

SMILES: COC(=O)c1ccccc1S(=O)(=O)N1CCC(NC(=O)c2ccccc2)CC1
- AC50 [2]: 3.36 µM (active)
- EC50 (Protein RecA): 15.1 µM (active)

SMILES: CCS(=O)(=O)N1CCC2(CC1)OCCN2S(=O)(=O)c1ccc(OC)cc1
- EC50 [1]: > 195 µM (not active)

SMILES: COc1ccc(C2NC(S)=NC3=C2CCc2ccccc23)cc1OC (stereo not drawn)
- AC50 [2]: 20 µM (active)
- EC50 (Protein RecA): 11.2 µM (active)

SMILES: CCOC(=O)c1c(NC(=O)COC(=O)c2ccc(C)s2)sc2c1CC(C)(C)NC2(C)C
- EC50 [3]: 2.43 µM (active)
- EC50 (Streptokinase A): > 150 µM (not active)
- EC50 (Streptococcus): 26.8 µM (active)

SMILES: COc1ccc(-c2cc(-c3ccc(O)cc3)nc(N)c2C#N)cc1OC
- IC50 (H9c2): > 79 µM (inactive)

SMILES: CCCc1n[nH]c2c1C(c1ccc(OCCN3CCOCC3)c(OC)c1)C(C#N)=C(N)O2 (stereo not drawn)
- AC50 [2]: 41.4 µM (active)
- EC50 (Protein RecA): 9.37 µM (active)

SMILES: O=C1CC(CSc2ccc(Cl)cc2)=NN1
- AC50 [2]: 3.23 µM (active)
- EC50 (Protein RecA): 1.61 µM (active)

SMILES: CCC1CCCCN1c1cc(C)nc2cc(-c3cccc(C)c3)nn12 (stereo not drawn)
- EC50 [3]: 6.17 µM (active)
- EC50 (Streptokinase A): 15.3 µM (active)
- EC50 (Streptococcus): 13.7 µM (active)

SMILES: CCn1cc(C(=O)OCC(=O)c2cc(C)n(-c3cccc(C(F)(F)F)c3)c2C)c(=O)c2ccc(C)nc21
- EC50 [3]: 5.68 µM (active)
- EC50 (Streptokinase A): 21.6 µM (active)
- EC50 (Streptococcus): > 50 µM (not active)

SMILES: O=C(NNc1ccccc1Cl)C(O)(c1cccc(C(F)(F)F)c1)c1cccc(C(F)(F)F)c1
- EC50 [3]: 2.65 µM (active)
- EC50 (Streptokinase A): 3.16 µM (active)
- EC50 (Streptococcus): 17.4 µM (active)

SMILES: COc1cc(OC)cc(C(=O)NC(=S)N2CCN(c3ccc(C(F)(F)F)cc3[N+](=O)[O-])CC2)c1
- EC50 [3]: 1.61 µM (active)
- EC50 (Streptokinase A): > 150 µM (not active)
- EC50 (Streptococcus): > 150 µM (not active)

SMILES: COc1ccccc1CNC(=O)N1CCN(c2ccccc2C)CC1
- EC50 [1]: > 195 µM (not active)

SMILES: CCOC(=O)/C(=N\Nc1ccc(OC)cc1)c1csc(Nc2ccccc2)n1
- EC50 [3]: 3.87 µM (active)
- EC50 (Streptokinase A): > 150 µM (not active)
- EC50 [4]: 1.33 µM (active)
- EC50 [5]: 9.87 µM (active)
- EC50 (Streptococcus): 10.8 µM (active)

SMILES: CCOc1cc(C(=S)N2CCOCC2)ccc1OS(=O)(=O)c1ccc(OC)cc1
- EC50 [1]: > 195 µM (not active)

SMILES: CCCC(C)NS(=O)(=O)c1ccccc1 (stereo not drawn)
- EC50 [1]: > 195 µM (not active)
